Test results taken from the OligoGym collection.
After the bases stand the sugars from the 5' end (letter, count) and the backbone: PS all phosphorothioate, else s phosphorothioate and o phosphodiester by linkage. Methylation of C is not given here. e = 2'-O-(2-methoxyethyl) (MOE); k = constrained ethyl (cEt); d = 2'-deoxy (DNA); m = 2'-O-methyl

Biological target: HSD17B13
Conditions: ASO, HepaRG

Sequence | target mRNA inhibition (1 µM) [%] | other results
CTGATTAATCTTGATG (sugars k3 d10 k3, PS) | 32 | –
CTTTCTATCAACCTGC (sugars k3 d10 k3, PS) | 68 | –
AATACGCTGAGAGTTA (sugars k3 d10 k3, PS) | 48 | –
ATGAGTAGGCAACTGA (sugars k3 d10 k3, PS) | 61 | –
GTCTAAACATCTCTGG (sugars k3 d9 k3 e1, PS) | 49 | –
GTAATCAGTTTTCCTC (sugars k3 d10 k3, PS) | 79 | target mRNA inhibition (0.02 µM): 0%; target mRNA inhibition (0.078 µM): 0%; target mRNA inhibition (0.313 µM): 11%; target mRNA inhibition (1.25 µM): 36%; target mRNA inhibition (5 µM): 73%
GCTGAGAGAGTATTTC (sugars k3 d10 k3, PS) | 51 | –
AACAUCTCTGGGACCA (sugars k3 d1 m1 d8 k3, PS) | 64 | –
CTTAAGATACCCAGGT (sugars k3 d10 k3, PS) | 36 | –
CTTCTCTTGGGTCCAT (sugars k3 d10 k3, PS) | 51 | –
AAGGACTTTCATAGGG (sugars k3 d10 k3, PS) | 71 | –
TTAATCATGGGACAGG (sugars k3 d10 k3, PS) | 27 | –
ATAGTCCATGCAAAAG (sugars kkdddddddddkekek, PS) | 31 | –
GTAATCTTGAGGCAGG (sugars k3 d10 k3, PS) | 51 | –
CTTGAGAGTGATTGCC (sugars k3 d10 k3, PS) | 64 | –
CTGCTGAAACTTGATC (sugars k3 d10 k3, PS) | 50 | –
GCATGGCTACAGATTG (sugars k3 d9 k3 e1, PS) | 67 | –
TTGAGTTCTCCACTGC (sugars k3 d1 m1 d8 k3, PS) | 18 | –
TGGAATGCTACTTGAA (sugars kkdddddddddkekek, PS) | 68 | –
TTACAACCTGGTTTCA (sugars k3 d10 k3, PS) | 25 | –
ATTGCAGTTATTAGAA (sugars k3 d10 k3, PS) | 42 | –
TGACAATGGTTGCCAC (sugars k3 d1 m1 d8 k3, PS) | 55 | –
GATTGCATAAGAGCCA (sugars k3 d10 k3, PS) | 82 | target mRNA inhibition (0.02 µM): 6%; target mRNA inhibition (0.078 µM): 31%; target mRNA inhibition (0.313 µM): 57%; target mRNA inhibition (1.25 µM): 67%; target mRNA inhibition (5 µM): 58%
CTCTATAAAATCAATC (sugars k3 d10 k3, PS) | 0 | –
AGAACCAATATGCTCT (sugars k3 d10 k3, PS) | 38 | –
GACATGAGGTTTTGAT (sugars kkdddddddddkekek, PS) | 55 | –
GCCATAATCTGTGATT (sugars k3 d10 k3, PS) | 0 | –
TCCAUAATAATAGCTC (sugars k3 d1 m1 d8 k3, PS) | 58 | –

Sequence | target mRNA inhibition (1 µM) [%] | other results
GTGTUCTTGTTGATAT (sugars k3 d1 m1 d8 k3, PS) | 52 | –
AAATGAGGCGGCACTC (sugars k3 d10 k3, PS) | 20 | –
TTTTTGGACAAATGCC (sugars k3 d10 k3, PS) | 50 | –
CAGAAATTCACCTTGA (sugars k3 d10 k3, PS) | 28 | –
GACAATTAACATTCGG (sugars k3 d10 k3, PS) | 69 | –
CTCAAATGTCTTGGTA (sugars k3 d10 k3, PS) | 29 | –
TCATTAAGCTTAGTAT (sugars k3 d10 k3, PS) | 31 | –
TCCAGTAAAAAATTGG (sugars k3 d10 k3, PS) | 12 | –
GCAAAGATCTGGCCAG (sugars k3 d10 k3, PS) | 22 | –
TTCTATTAGTTGGCCT (sugars k3 d10 k3, PS) | 28 | –
CTACTTGAACAGTCTT (sugars kkdddddddddkekek, PS) | 47 | –
CACGATTGTTACATCA (sugars k3 d10 k3, PS) | 37 | –
AAGAGGATAGTCCATG (sugars k3 d10 k3, PS) | 65 | –
TGTGTAGTCCTAGGGA (sugars k3 d10 k3, PS) | 50 | –
CAGGCTGTAAGAGTCA (sugars k3 d10 k3, PS) | 56 | –
AGACAATTAACATTCG (sugars k3 d10 k3, PS) | 62 | –
ATATGTCCAGGTTGAG (sugars k3 d10 k3, PS) | 61 | –
AAACAAGAGGATAGTC (sugars k3 d10 k3, PS) | 48 | –
TTTTAGGGAGGTAGCT (sugars k3 d10 k3, PS) | 39 | –
AGCTACCTCCAAATTC (sugars k3 d10 k3, PS) | 0 | –
GTCCAGGTTGAGATAA (sugars k3 d10 k3, PS) | 60 | –
CACACTAATGAATCAT (sugars k3 d10 k3, PS) | 30 | –
AAACTTGATCTCTTAG (sugars k3 d10 k3, PS) | 61 | –
GAATTGCTCACCCTTT (sugars k3 d10 k3, PS) | 24 | –
CTTATGTAATAGCCAG (sugars kkdddddddddkekek, PS) | 61 | –
GATTGGAATGCTACTT (sugars k3 d10 k3, PS) | 58 | –
CAGATTATTATGTGAT (sugars k3 d10 k3, PS) | 51 | –
